{
  "source": "patent US20070142384A1",
  "about": "“Compounds, pharmaceutical compositions and methods for use in treating metabolic disorders” (AMGEN INC., priority 2004, published 2007)",
  "target": "T1, human GPR40 (Homo sapiens, UniProt O14842)",
  "T1 construct": "expressed in transfected cells; host or cells: CHO cells, transient co-transfection with Aequorin expression vector (Euroscreen)",
  "T1 sequence (O14842 whole entry)": "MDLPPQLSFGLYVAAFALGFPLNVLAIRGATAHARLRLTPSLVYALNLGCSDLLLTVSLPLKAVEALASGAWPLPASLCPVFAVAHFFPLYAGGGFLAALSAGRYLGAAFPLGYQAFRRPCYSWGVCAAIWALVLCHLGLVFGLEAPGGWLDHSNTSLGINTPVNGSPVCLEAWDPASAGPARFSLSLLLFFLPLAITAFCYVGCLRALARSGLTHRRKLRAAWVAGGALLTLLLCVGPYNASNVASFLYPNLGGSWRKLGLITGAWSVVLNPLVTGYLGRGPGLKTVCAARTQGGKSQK",
  "test": "Cell-based aequorin assay using human GPR40",
  "settings": "activation of human GPR40; CHO cells transfected with GPR40 and Aequorin expression vectors; aequorin luminescence, area-under-curve 2-20 seconds; 0.01% BSA or 0.625% HSA; read-out: Relative EC50",
  "experimental": "A cell-based aequorin assay may be employed to characterize the modulatory activity of compounds on the GPR40 signaling pathway. In an exemplary assay, CHO cells are transfected in a 15 cm plated containing 14 million cells with 5 μg of GPR40 expression vector and 5 μg of Aequorin expression vector (Euroscreen) using Lipofectamine 2000 (Invitrogen). […] Trypsinization is halted with 28 mL of Hanks Buffered Salt Solution containing 20 mM Hepes (H/HBSS) and 0.01% fatty acid-free bovine serum albumin (BSA) or 0.625% fatty acid-free human serum albumin (HSA). […] Cells are gently mixed every 15 minutes. Compounds are dissolved in dimethyl sulfoxide for preparation of 10 mM stock solutions. Compounds are diluted in H/HBSS containing either 0.01% BSA or 0.625% HSA. Serial dilutions of the test compounds are prepared to determine dose response.\nAequorin luminescence measurements are made using an EG&G Berthold 96-well luminometer and the response is measured over a 20 second interval after cells and compounds were mixed. […] The EC50 (effective concentration to reach 50% maximal response) is determined from the dose response plot. […]",
  "data": [
    {"molecule": "O=C(O)CC(c1ccc(OCc2cccc(-c3ccc(C(F)(F)F)cc3)c2)cc1)C1CC1", "note": "(stereo not shown) [Compound 91]", "values": [
      {"measurement": "EC50", "value": "1 to 10", "unit": "µM"}
    ]}
  ]
}
